Source: patent US20260167622A1, “PAN-KRAS DEGRADING AGENT, AND PREPARATION METHOD THEREFOR AND USE THEREOF” (LEADINGTAC PHARMACEUTICAL (SHAOXING) CO., LTD., priority 2022, published 2026)
pIC50: −log10 of the molar value.

Legend:
Type in all cases: cell-based
[1] = target: T1, KRAS G12V protein in SW900 cells (Homo sapiens, UniProt P01116, G12V); assay: KRAS degradation assay (Western Blot) in SW900 cells; conditions: 24 h
T1 construct: endogenous in cells; host or cells: SW900
How it was run: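 After a 24 h treatment spanning 0.03–3000 nM, remaining KRAS protein is quantified by ECL immunoblot against a β-actin internal reference. Degradation is expressed relative to vehicle-treated cells and curve-fitted for DC50 and Dmax.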

[2] = tested on: KRAS G12D mutant human lung cancer cell A427; assay: 3D cell proliferation inhibition assay, A427; conditions: A-427, 168 h, 3D culture, 7 days, CTG
Excerpt: (§1) Test Example 6: 3D Cell Proliferation Inhibition Assay
(§2) The inhibitory effects of the compounds on 3D cell proliferation were investigated on KRAS G12C mutant human non-small cell lung cancer cell NCI-H358, KRAS G12D mutant human lung cancer cell A427, KRAS G12D mutant human gastric cancer cell AGS, KRAS G12D mutant human metastatic pancreatic cancer cell AsPc-1, KRAS G12V mutant human lung squamous carcinoma cell SW900, KRAS G12V mutant human colorectal cancer cell SW620, KRAS G13D mutant human colorectal cancer epithelial cell DLD-1, and KRAS WT human gastric cancer cell MKN1. The specific procedures were as follows:
(§3) 10 μL of each compound solution diluted in a gradient was added to corresponding wells of a 96-well low-adsorption microplate (PerkinElmer), so that the final concentrations of the test compounds in the reaction system were in a range of 10000-0.026 nM. The final concentration of DMSO was 0.2%. Then 90 µL of cells were correspondingly seeded into each well to achieve a cell density of 5×10^2 cells/well (the cell density of SW900 was 5×10^3 cells/well, and the cell density of MKN1 was 1×10^3 cells/well). In addition to test wells for the test compounds, both a DMSO control well and a medium control well were set, with the DMSO control well containing DMSO and cells and the medium well containing only a medium. After the sample loading, the 96-well low-adsorption microplate was incubated in an incubator at 37° C. with […] for 7 days. After 7 days, the microplate was taken out, and 100 μL of CTG reagent (Promega) was added to each well. The plate was incubated at room temperature for 60 m and read on a microplate reader EnVision by the chemiluminescence program. The inhibition rates of the compounds at each concentration were calculated using the formula for the percentage inhibition of cell proliferation: inhibition rate 00=(mean value of DMSO control group−single concentration reading value of compound)/(mean value of DMSO control group−mean value of medium control group)×100. Then non-linear curve fillings for logarithmic concentration-inhibition rate were performed by GraphPad Prism 8, and the IC50 values of the compounds were obtained (Table 6).

[3] = tested on: KRAS G12D mutant human gastric cancer cell AGS; assay: 3D cell proliferation inhibition assay, AGS; conditions: 168 h, 3D culture, 7 days, CTG
Excerpt: as §1, §2, §3

[4] = tested on: KRAS G12D mutant human metastatic pancreatic cancer cell AsPc-1; assay: 3D cell proliferation inhibition assay, AsPc-1; conditions: ASPC1, 168 h, 3D culture, 7 days, CTG
How it was run: (§4)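 Seven-day 3D growth at 37 °C in low-adsorption wells, 5×10^2 cells/well except MKN1 (1×10^3), final compound range 10000–0.026 nM in 0.2% DMSO. CTG luminescence read-out; percent inhibition set against DMSO and medium-only wells, IC50 by curve fitting.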

[5] = tested on: KRAS G12C mutant human non-small cell lung cancer cell NCI-H358; assay: 3D cell proliferation inhibition assay, NCI-H358; conditions: NCI-H358, 168 h, 3D culture, 7 days, CTG
How it was run: as §4

[6] = tested on: KRAS G12V mutant human lung squamous carcinoma cell SW900; assay: 3D cell proliferation inhibition assay, SW900; conditions: SW900, 168 h, 3D culture, 7 days, CTG
[7] = tested on: KRAS G13D mutant human colorectal cancer epithelial cell DLD-1; assay: 3D cell proliferation inhibition assay, DLD-1; conditions: DLD-1, 168 h, 3D culture, 7 days, CTG
How it was run: as §4

[8] = tested on: KRAS WT human gastric cancer cell MKN1; assay: 3D cell proliferation inhibition assay, MKN1; conditions: MKN-1, 168 h, 3D culture, 7 days, CTG
How it was run: as §4

T1 sequence (P01116 1-188 isoform P01116-2 G12V): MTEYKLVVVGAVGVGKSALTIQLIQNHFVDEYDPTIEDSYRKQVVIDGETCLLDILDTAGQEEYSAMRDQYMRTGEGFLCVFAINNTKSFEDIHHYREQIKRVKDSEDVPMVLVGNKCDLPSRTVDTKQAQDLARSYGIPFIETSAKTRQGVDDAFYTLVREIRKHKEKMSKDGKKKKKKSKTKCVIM

| DC50 [1] [µM] | Dmax [1] [%] | pIC50 [2] | pIC50 [3] | pIC50 [4] | pIC50 [5] | pIC50 [6] | pIC50 [7] | pIC50 [8] | Compound |
| --- | --- | --- | --- | --- | --- | --- | --- | --- | --- |
| ≤ 0.05 | 80 to 100 | 7.00 to 7.30 | ≥ 7.30 | ≥ 7.30 | ≥ 7.30 | ≥ 7.30 | ≥ 7.30 | ≥ 7.30 | C#Cc1c(F)ccc2cc(O)cc(-c3ncc4c(N5CCC[C@@](C)(O)C5)nc(OCC5(CN6CCC(CCOCC7CCN(C(=O)c8ccc(Cl)c(N9CCC(=O)NC9=O)c8)CC7)CC6)CC5)nc4c3F)c12 [Example 8, (R)-1-(2-chloro-5-(4-((2-(1-((1-(((7-(8-ethynyl-7-fluoro-3-hydroxynaphthalen-1-yl)-8-fluoro-4-(3-hydroxy-3-methylpiperidin-1-yl)pyrido[4,3-d]pyrimidin-2-yl)oxy)methyl)cyclopropyl)methyl)piperidin-4-yl)ethoxy)methyl)piperidine-1-carbonyl)phenyl)dihydropyrimidine-2,4(1H,3H)-dione] |
| ≤ 0.05 | 80 to 100 | ≥ 7.30 | ≥ 7.30 | 7.00 to 7.30 | ≥ 7.30 | ≥ 7.30 | ≥ 7.30 | ≥ 7.30 | C#Cc1c(F)ccc2cc(O)cc(-c3ncc4c(N5CCC[C@@](C)(O)C5)nc(OCC5(CN6CCN(CCC7CCC8(CC7)CCN(C(=O)c7ccc(Cl)c(N9CCC(=O)NC9=O)c7)CC8)CC6)CC5)nc4c3F)c12 [Example 9, (R)-1-(2-chloro-5-(9-(2-(4-((1-(((7-(8-ethynyl-7-fluoro-3-hydroxynaphthalen-1-yl)-8-fluoro-4-(3-hydroxy-3-methylpiperidin-1-yl)pyrido[4,3-d]pyrimidin-2-yl)oxy)methyl)cyclopropyl)methyl)piperazin-1-yl)ethyl)-3-azaspiro[5.5]undecane-3-carbonyl)phenyl)dihydropyrimidine-2,4(1H,3H)-dione] |
| ≤ 0.05 | 80 to 100 | 7.00 to 7.30 | ≥ 7.30 | 7.00 to 7.30 | ≥ 7.30 | ≥ 7.30 | 7.00 to 7.30 | ≥ 7.30 | C#Cc1c(F)ccc2cc(O)cc(-c3ncc4c(N5CCC[C@@](C)(O)C5)nc(OCC5(CN6CCC(COCCC7CCN(C(=O)c8ccc(Cl)c(N9CCC(=O)NC9=O)c8)CC7)CC6)CC5)nc4c3F)c12 [Example 10, (R)-1-(2-chloro-5-(4-(2-((1-((1-(((7-(8-ethynyl-7-fluoro-3-hydroxynaphthalen-1-yl)-8-fluoro-4-(3-hydroxy-3-methylpiperidin-1-yl)pyrido[4,3-d]pyrimidin-2-yl)oxy)methyl)cyclopropyl)methyl)piperidin-4-yl)methoxy)ethyl)piperidine-1-carbonyl)phenyl)dihydropyrimidine-2,4(1H,3H)-dione] |
| ≤ 0.05 | 80 to 100 | 6.30 to 7.00 | ≥ 7.30 | ≥ 7.30 | ≥ 7.30 | ≥ 7.30 | ≥ 7.30 | ≥ 7.30 | CCc1cccc2cc(O)cc(-c3ncc4c(N5CCC[C@@](C)(O)C5)nc(OCC5(CN6CCN(CC7CCC8(CC7)CCN(C(=O)c7ccc(F)c(N9CCC(=O)NC9=O)c7)CC8)CC6)CC5)nc4c3F)c12 [Example 28, (R)-1-(5-(9-((4-((1-(((7-(8-ethyl-3-hydroxynaphthalen-1-yl)-8-fluoro-4-(3-hydroxy-3-methylpiperidin-1-yl)pyrido[4,3-d]pyrimidin-2-yl)oxy)methyl)cyclopropyl)methyl)piperazin-1-yl)methyl)-3-azaspiro[5.5]undecane-3-carbonyl)-2-fluorophenyl)dihydropyrimidine-2,4(1H,3H)-dione] |
